Measured values: PMC11361989, “A simple HPLC–MS/MS method for the determination of polymyxin B in human plasma and its application in the pharmacokinetic study in elderly patients infected with multidrug-resistant Gram-negative bacteria” (Frontiers in Pharmacology, 2024)

How the values were obtained:
[1] = Pharmacokinetic study of intravenous PB in elderly patients infected with multidrug-resistant Gram-negative bacteria; format: in vivo, human; conditions: for AUCss, 24 h: elderly patients, steady state, first-order elimination-based equation, mean ± SD; for Ctrough: human, in vivo
Source text: This study was approved by the Medical Ethics Committee of Shandong Provincial Hospital (No. 2021–356). Written informed consent was obtained from all patients or their legal representatives. Herein, we included 14 elderly patients (65≤ Age ≤95) who received intravenous PB injections (polymyxin B sulfate for injection, Shanghai First Biochemical Pharmaceutical Co., Ltd.) in the period between April 2021 and January 2023 for treating infections caused by multidrug-resistant Gram-negative bacteria. These patients were divided into two groups: in the first group, eight patients received 100 mg loading dose combined with 75 mg maintenance dose q 12 h, and in the other group, six subjects received a 150-mg loading dose and a 100-mg maintenance dose q 12 h. The duration of the intravenous treatment was 1 h. The dosage for all patients was decided by the clinician according to the clinical response. Patients undergoing plasma exchange, continuous renal replacement therapy, or extracorporeal membrane oxygenation were excluded. Clinical and demographic data (age, gender, body weight, pathogens, infection sites, and PB-treatment history) were collected from electronic medical records. Laboratory data, including serum creatinine (Scr), estimated glomerular filtration rate (eGFR), and creatinine clearance (CrCL), were collected on the sampling day. CrCL was calculated using the Cockcroft–Gault equation. On the third day after the administration of the loading dose, blood samples were collected at pre-dose (0 h) and 0.5, 1, 2, 3, 6, 8, and 12 h after the start of administration using EDTA tubes and processed to obtain plasma samples. A total of 112 blood samples were collected and detected, and all of these were stored at −70°C. After analysis by the validated methods, PK parameters were calculated by non-compartmental analysis using Phoenix WinNonlin software 8.3 (Certara, United States).
After validation, the HPLC–MS/MS method was applied to the PK study of PB in elderly patients infected with multidrug-resistant Gram-negative bacteria. A total of 112 blood samples were collected from 14 elderly patients receiving intravenous PB treatment. […] The concentration of PB is the sum of the concentrations of PB1 and PB2 calculated, and it is based on the formula provided by [Liu et al. (2023)]. The individual AUCss, 24 h values were estimated using the first-order elimination-based equation method ([Begg et al., 1995]; [Pai et al., 2014]; [Liu et al., 2023]).

[2] = Kidney function indicators (Scr, eGFR) during PB therapy; format: in vivo, human; conditions: elderly patients, 100-mg maintenance dose, after an average of 3.83 days
Source text: This study was approved by the Medical Ethics Committee of Shandong Provincial Hospital (No. 2021–356). Written informed consent was obtained from all patients or their legal representatives. Herein, we included 14 elderly patients (65≤ Age ≤95) who received intravenous PB injections (polymyxin B sulfate for injection, Shanghai First Biochemical Pharmaceutical Co., Ltd.) in the period between April 2021 and January 2023 for treating infections caused by multidrug-resistant Gram-negative bacteria. […] CrCL was calculated using the Cockcroft–Gault equation. […] A total of 112 blood samples were collected and detected, and all of these were stored at −70°C. After analysis by the validated methods, PK parameters were calculated by non-compartmental analysis using Phoenix WinNonlin software 8.3 (Certara, United States).
The recommended AUCss, 24 h range of PB, which is based on the therapeutic window of the drug, is between 50 and 100 μg h/mL ([Tsuji et al., 2019]; [Liu et al., 2023]). […] To avoid the MS/MS crosstalk among the above-mentioned analytes undermining their detection sensitivity and quantitative accuracy, each analyte should be quantified with satisfactory chromatographic separation. […] However, crosstalk still should be measured in a high concentration level. […]

[3] = population PK, elderly patients; ref Wang et al., 2022; cited from earlier work
Source text: Compared to the administration of a fixed dose of PB, the administration of a body-weight-based dose of PB increases the efficacy of the antibiotic ([Sandri et al., 2013]; [Miglis et al., 2018]; [Tsuji et al., 2019]; [Wang et al., 2021a]). However, clinicians usually administer a fixed dose of PB due to challenges in obtaining accurate body weight information about critically ill patients. Moreover, fixed loading and maintenance doses of polymyxin B appear more appropriate than weight-based dosing regimens in patients within the 45–90-kg BW range ([Hanafin et al., 2023]). This study is the fir ...

[4] = Stability of PB1 and PB2 in human plasma under different storage conditions; conditions: human plasma: 24 h at room temperature (25°C), 24 h at 4°C (post preparative), three freeze–thaw cycles, 85 days at −70°C
Description: The stock solutions of the calibrators and quality control (QC) samples should be prepared separately in the same way. The PB stock solution for calibrators and QC samples was prepared in water (1% FA) at 400.48 μg/mL for PB1 and 40.84 μg/mL for PB2. Consequently, working solutions for construction of calibrators and QC were prepared by serially diluting the stock solution with a 1% aqueous solution of FA. The concentrations of the working solutions for calibrators were 10.01, 30.03, 50.05, 100.12, 150.18, and 200.24 μg/mL for PB1 and 1.02, 3.06, 5.10, 10.21, 15.31, and 20.42 μg/mL for PB2. The concentrations of working solutions for QCs were prepared at 20.02 μg/mL (LQC), 90.11 μg/mL (MQC), and 180.22 μg/mL (HQC) for PB1 and 2.04 μg/mL (LQC), 9.18 μg/mL (MQC), and 18.36 μg/mL (HQC) for PB2. The working solution of IS (10.00 μg/mL) was prepared using methanol. All the above solutions were stored at −70°C. The calibrators and QC samples were obtained by spiking 90 μL of blank plasma with 10 μL of working solution at the corresponding concentration. The standard curves were in the range of 1.00–20.02 μg/mL and 0.10–2.04 μg/mL for PB1 and PB2, respectively.
Typically, 100 μL of the plasma sample was mixed with 10 μL IS working solution, and then, 300 μL 0.1% FA in methanol was added to the sample for protein precipitation. The mixture was vortexed for 3 min and centrifuged in an Eppendorf 5415D microcentrifuge (Eppendorf, Hamburg, Germany) at 11,000 g rpm for 10 min. Subsequently, 200 μL of the supernatant was transferred into a clean polypropylene tube and diluted with 150 μL of 0.1% FA in water. The mixture solution was vortexed for 3 min and centrifuged at 11,000 rpm for 10 min using the same centrifuge. Finally, 200 μL of the supernatant was transferred into an injection bottle, and 10 μL was injected into the HPLC–MS/MS for analysis.
The stability of the working solutions of PB1 and PB2 was evaluated. The short-term stability and long-term stability of PB1 and PB2 in human plasma were evaluated under the following conditions: placed at room temperature or 4°C for 24 h, frozen and thawed three times, and stored at −70°C for 85 days. The stability evaluation was conducted for both LQC and HQC concentrations.

Polymyxin B [PB]
AUCss, 24 h ([1]; maintenance 75 mg q12h, n = 8): 117.70 ± 37.03 µg·h/mL | AUCss, 24 h ([1]; maintenance 100 mg q12h, n = 6): 152.73 ± 70.09 µg·h/mL | Ctrough ([1]; 75 mg): 2650 ± 1320 ng/mL | Ctrough ([1]; 100 mg): 3400 ± 1870 ng/mL | mean Scr value during therapy [2]: 111.82 µmol/L | mean eGFR value during therapy [2]: 66.00 mL/min | typical value of CL [3]: 1.87 L/h | Stability in human plasma (in words) [4]: stable
